The PolyMetriX glass transition set
± gives the standard deviation of the reports.

Row | glass transition temperature [°C] | Compound
1 | 205.00 | *c1ccc(Oc2ccc(C(=O)c3cccc(C(=O)c4ccc(Oc5ccc(-c6cc(*)[nH]n6)cc5)cc4)c3)cc2)cc1 (repeat unit)
2 | 275.00 | *c1ccc(Oc2cccc(NC(=O)c3cc(C(=O)Nc4cccc(Oc5ccc(-c6nnc(*)o6)cc5)c4)cc(N4C(=O)c5c(Cl)c(Cl)c(Cl)c(Cl)c5C4=O)c3)c2)cc1 (repeat unit)
3 | 75.00 | *CCCCCCOc1ccc(C(=O)N(C(=O)c2ccc(O*)cc2)c2cc(C)cc(C)c2)cc1 (repeat unit)
4 | 198.00 | *Nc1cc(NC(=O)c2ccc(C(*)=O)cc2)cc(C(=O)OCCOC(=O)/C=C/c2ccc(N(C)C)cc2)c1 (repeat unit)
5 | 66.00 | *CCCCCCCCCCC(=O)Oc1ccc2cc(OC(=O)CCCCCCCCCCn3c(=O)c4cc5c(=O)n(*)c(=O)c5cc4c3=O)ccc2c1 (repeat unit)
6 | -44.00 | *CC(*)(C)C(=O)OCC[N+](C)(C)CCCCCCC (repeat unit)
7 | 246.00 | *c1ccc(C(C)(C)c2ccc(C(C)(C)c3ccc(N4C(=O)c5ccc(Oc6ccc7ccc(Oc8ccc9c(c8)C(=O)N(*)C9=O)cc7c6)cc5C4=O)cc3)cc2)cc1 (repeat unit)
8 | 78.00 | *CC(*)c1ccccc1COCCC(C)C (repeat unit)
9 | 176.50 | *Oc1cccc(Oc2ccc(NC(=O)c3ccc(Oc4cccc(Oc5ccc(C(=O)Nc6ccc(*)cc6)cc5)c4)cc3)cc2)c1 (repeat unit)
10 | 302.00 | *Nc1ccc(Cc2ccc(NC(=O)c3cc(NC(=O)c4ccncc4)cc(C(*)=O)c3)cc2)cc1 (repeat unit)
11 | 22.00 | *CC[CH2][Sn]([CH3])([CH3])[CH2]CCOC(=O)C(CCCCCCCCOc1ccc(-c2ccc(OCc3ccc(C#N)cc3)cc2)cc1)C(=O)O* (repeat unit)
12 | 293.00 | *c1ccc(-c2nc3cc(Oc4ccc(NC(=O)c5ccc6c(c5)C(=O)N(c5ccc(C(c7ccc(N8C(=O)c9ccc(C(=O)Nc%10ccc(Oc%11ccc%12nc(-c%13ccccc%13)c(*)nc%12c%11)cc%10)cc9C8=O)cc7)(C(F)(F)F)C(F)(F)F)cc5)C6=O)cc4)ccc3nc2-c2ccccc2)cc1 (repeat unit)
13 | 220.00 | *c1ccc(Cc2ccc(N3C(=O)c4ccc([Si](C)(C)O[Si](C)(C)O[Si](C)(C)c5ccc6c(c5)C(=O)N(*)C6=O)cc4C3=O)cc2)cc1 (repeat unit)
14 | 260.00 | *c1ccc(Oc2ccc(N3C(=O)c4ccc(Oc5ccc(S(=O)(=O)c6ccc(Oc7ccc8c(c7)C(=O)N(*)C8=O)cc6)cc5)cc4C3=O)cc2)cc1 (repeat unit)
15 | 99.00 | *CC(*)(C)C(=O)Oc1ccc(C(=O)Oc2ccccc2)cc1 (repeat unit)
16 | 111.00 | *CC(*)(CC(=O)Oc1ccc(OCCCCCCC)cc1)C(=O)Oc1ccc(OCCCCCCC)cc1 (repeat unit)
17 | 340.00 | *C(=O)Nc1ccc(S(=O)(=O)c2ccc(NC(=O)c3ccc4c(c3)C(=O)N(c3ccc(-c5sc(-c6ccc(N7C(=O)c8ccc(*)cc8C7=O)cc6)c(-c6ccccc6)c5-c5ccccc5)cc3)C4=O)cc2)cc1 (repeat unit)
18 | 172.00 | *Oc1ccc(C(C)(c2ccccc2)c2ccc(OC(=O)c3ccccc3-c3ccccc3C(*)=O)cc2)cc1 (repeat unit)
19 | 47.50 | *CCCCCOC(=O)c1ccc(-c2ccc(C(=O)O*)cc2)cc1 (repeat unit)
20 | 300.00 | *=Cc1ccc(/C=N/c2c(-c3ccccc3)cc(-c3ccc(-c4cc(-c5ccccc5)c(N=*)c(-c5ccccc5)c4)cc3)cc2-c2ccccc2)cc1 (repeat unit)
21 | 110.00 | */C=C(/*)C(CCC)[Si](C)(C)c1ccccc1 (repeat unit)
22 | 168.00 | *c1cccc(OCCCCCOc2cccc(N3C(=O)c4ccc(-c5cccc6c5C(=O)N(*)C6=O)cc4C3=O)c2)c1 (repeat unit)
23 | 222.00 | *C(=O)c1ccc2c(c1)C(=O)N(c1ccc(Oc3ccc(C(=O)c4cccc(C(=O)c5ccc(Oc6ccc(N7C(=O)c8ccc(*)cc8C7=O)cc6)cc5)c4)cc3)cc1)C2=O (repeat unit)
24 | 165.00 | *C(F)(F)C1(*)OC(F)(C(F)(F)F)C(F)(C(F)(F)F)O1 (repeat unit)

Row | glass transition temperature [°C] | Compound
25 | 328.00 | *C(=O)Nc1cccc(NC(=O)c2ccc3c(c2)C(=O)N(c2ccc(Oc4ccc(C5(c6ccc(Oc7ccc(N8C(=O)c9ccc(*)cc9C8=O)cc7)cc6)NC(=O)c6ccccc65)cc4)cc2)C3=O)c1 (repeat unit)
26 | 194.00 | *c1ccc(OCOc2ccc(-c3nc(-c4ccc([N+](=O)[O-])cc4)oc3*)cc2)cc1 (repeat unit)
27 | 177.00 | *Oc1ccc(/N=C(\c2ccccc2)c2ccc(Oc3ccc(C(c4ccccc4)(c4ccccc4)c4ccc(Oc5ccc(/C(=N/c6ccc(*)cc6)c6ccccc6)cc5)cc4)cc3)cc2)cc1 (repeat unit)
28 | 130.00 | *CCN(CCOC(=O)Nc1ccc(Cc2ccc(NC(=O)O*)cc2)cc1)c1ccc(/N=N/c2ccc([N+](=O)[O-])cc2C)c(C)c1 (repeat unit)
29 | 163.00 | *Oc1ccc(S(=O)(=O)c2ccc(Oc3ccc(C(C)(C)c4ccc(*)c(C(OC)(C(F)(F)F)C(F)(F)F)c4)cc3C(OC)(C(F)(F)F)C(F)(F)F)cc2)cc1 (repeat unit)
30 | -68.00 | *CC(*)C(=O)OCC(F)(F)C(F)(F)OC(F)(F)C(F)(F)C(F)(F)C(F)(F)F (repeat unit)
31 | 276.00 | *c1ccc2c(c1)C(=O)N(c1ccccc1Oc1ccc(N3C(=O)c4ccc(C(*)(C(F)(F)F)C(F)(F)F)cc4C3=O)cc1)C2=O (repeat unit)
32 | 57.00 | *c1nc(-c2ccccc2)nc(N(C)CCCCCCN(*)C)n1 (repeat unit)
33 | 2.00 | *Oc1ccc(CC(NC(=O)CCc2ccc(OC(=O)CCCCCCCCC(*)=O)cc2)C(=O)OCCOCCOCC)cc1 (repeat unit)
34 | 248.00 | *c1cccc(N2C(=O)c3cccc(Oc4ccc(C(=O)c5ccc(Oc6cccc7c6C(=O)N(*)C7=O)cc5)cc4)c3C2=O)c1 (repeat unit)
35 | 302.00 | *C(=O)Nc1ccc(Oc2cccc(NC(=O)c3ccc4c(c3)C(=O)N(c3ccc(Oc5ccc(C6(c7ccc(Oc8ccc(N9C(=O)c%10ccc(*)cc%10C9=O)cc8)cc7)NC(=O)c7ccccc76)cc5)cc3)C4=O)c2)cc1 (repeat unit)
36 | 237.00 | *c1ccc(Oc2ccc(-c3ccc(Oc4ccc(N5C(=O)c6cccc(Oc7c(Oc8cccc9c8C(=O)N(*)C9=O)cc(C(C)(C)C)cc7C(C)(C)C)c6C5=O)cc4)cc3)cc2)cc1 (repeat unit)
37 | 255.50 | *OC(=O)c1ccc(C(=O)OC2COC3C(*)COC23)cc1 (repeat unit)
38 | 61.00 | *CC(*)OCCOc1ccc(/N=N/c2ccc(C#N)cc2)cc1 (repeat unit)
39 | 57.00 | *CC(*)(C)C(=O)OCCCCCCCCCCOc1ccc(OC(=O)c2ccc(-c3ccc(OC)cc3)cc2)cc1 (repeat unit)
40 | 125.00 | *c1cccc(OCCCCCCCCCCOc2cccc(N3C(=O)c4ccc(-c5ccc6c(c5)C(=O)N(*)C6=O)cc4C3=O)c2)c1 (repeat unit)
41 | 89.00 | *Oc1ccc(Oc2cccc(*)n2)c(C)c1 (repeat unit)
42 | -4.00 | *O[Si](*)(C)CC[Si](C)(C)O[Si](C)(C)CCCOc1cc(OC(=O)c2ccc(OCCCC)cc2)ccc1/N=N/c1ccc(OCCCC)cc1 (repeat unit)
43 | 365.00 | *Nc1ccc(C(c2ccc(NC(=O)c3cc(NC(=O)C45CC6CC(CC(C6)C4)C5)cc(C(*)=O)c3)cc2)(C(F)(F)F)C(F)(F)F)cc1 (repeat unit)
44 | 136.00 | *c1ccc2c(c1)Sc1cc(-c3sc4cc(*)sc4c3CCCCC)ccc1N2CCCCCCCCCCCC (repeat unit)
45 | 157.00 | *c1ccc(Oc2ccc(Oc3ccc(N4C(=O)CC(=O)N(*)C4=S)cc3)cc2)cc1 (repeat unit)
46 | 228.50 | *Nc1ccc(NC(=O)c2ccc(NC(=O)CCCCCCCCC(=O)Nc3ccc(C(*)=O)cc3)cc2)cc1C(=O)OCCCCCCCCCCCC (repeat unit)
47 | 265.00 | *c1ccc(Oc2ccc(C3(c4ccc(Oc5ccc(N6C(=O)c7ccc(Oc8c(C)cc(C(C)(C)c9cc(C)c(Oc%10ccc%11c(c%10)C(=O)N(*)C%11=O)c(C)c9)cc8C)cc7C6=O)cc5)cc4)CC4CCC3C4)cc2)cc1 (repeat unit)
48 | 281.00 | *c1ccc(Oc2ccc(S(=O)(=O)c3ccc(C)cc3)cc2)c(N2C(=O)c3ccc(-c4ccc5c(c4)C(=O)N(*)C5=O)cc3C2=O)c1 (repeat unit)

Row | Compound | glass transition temperature [°C]
49 | *c1cccc(P(=O)(c2ccccc2)c2cccc(-n3c(=O)c4c(-c5ccc(C(F)(F)F)cc5)c5c(=O)n(*)c(=O)c5c(-c5ccc(C(F)(F)F)cc5)c4c3=O)c2)c1 (repeat unit) | 334.00
50 | *CC(*)OCCOc1ccc(C=C(C#N)C#N)cc1 (repeat unit) | 38.00
51 | *CC(*)c1ccccc1C(=O)OC (repeat unit) | 130.00
52 | *Oc1c(Cl)cc(*)cc1Cl (repeat unit) | 176.82
53 | *CC(*)(C(=O)OC)c1ccccc1 (repeat unit) | 121.00
54 | *c1ccc(Cc2ccc(N3C(=O)c4ccc(OCCN(CCOc5ccc6c(c5)C(=O)N(*)C6=O)c5ccc(/C=C/c6ccc([N+](=O)[O-])cc6)cc5)cc4C3=O)cc2)cc1 (repeat unit) | 160.70
55 | *C1CC2CC1C(*)C2CCCC (repeat unit) | 235.00
56 | *CC(*)(C)C(=O)OCCC (repeat unit) [Poly(n-propyl methacrylate) ] | 35 ± 5.4
57 | *CC(CC)S* (repeat unit) | -47.00
58 | *OC(CCOc1ccccc1)CC(*)=O (repeat unit) | 20.00
59 | *CCCN(*)C(=O)c1ccccc1 (repeat unit) | 72.00
60 | *CCCO* (repeat unit) [Polyoxytrimethylene ] | -78 ± 3
61 | *CCOP(=O)(/N=N/c1ccc(Oc2ccc(/N=N/P(=O)(O*)OCC)cc2)cc1)OCC (repeat unit) | 22.00
